{
  "source": "patent US12714682B2",
  "about": "“Calixarene compounds and uses thereof” (UNIVERSITÄT WIEN, priority 2019, dated 2026)",
  "key": {"NQO1": {"tested_on": "NQO1", "assay": "NQO1 immunoblot in HeLa cells", "type": "cell-based, human", "conditions": "48 hours", "description": "A specific anti-oxidative effect or activity of a compound is proven, if induces the expression of NQO1 in mammalian cells to a higher level than over vehicle treated cells, preferably by ~3 fold when the compound is used at 500 μM, as determined by a standard assay: Semi-quantitative western blot analysis. HeLa cells are treated with vehicle, 50, 100 and 500 μM of the compound for 48 h and lysed in Triton X-100 extraction buffer (50 mM HEPES [pH 7.4], 140 mM NaCl, 1% Triton X-100, 1 mM EDTA, 0.3 mM DTT and Complete Protease Inhibitor Cocktail). 25 μg of whole cell extract are separated on a 10% SDS-PAGE, after transfer to a PVDF membrane (Bio-Rad), proteins detected by use of standard immunoblotting procedures. […] For the analysis and quantification of the protein levels, Gel Analyzer from ImageJ (National Institute of Health, USA: http://imagej.nih.gov/ij) is used.\nTo verify experimentally the anti-oxidative effect of SCA-744, the induction of one of these three genes, NQO1, a major anti-oxidative enzyme was investigated. […] In fact, no NQO1 was detected in control cells under the applied experimental conditions, while a prominent signal was induced even at 50 μM, the lowest concentration of SCA-744 tested, that increased by increasing SCA-744 concentrations (approximately 3.5 fold higher signal at 500 μM). […]"}, "C57BL/6J mice": {"tested_on": "C57BL/6J mice", "assay": "LPS-induced acute lung inflammation model: respiratory function (plethysmography)", "type": "in vivo", "conditions": "100 μg LPS intratracheal, measured 24 h after; SCA-744 60 mg/kg i.p. 4 doses; dexamethasone 5 mg/kg ip. 2 doses", "description": "Acute lung inflammation was induced by intratracheal administration of 100 μg LPS (Escherichia coli O111:B4; Sigma Aldrich, St. Louis, MO, USA) dissolved in 60 μl sterile phosphate buffered saline (PBS) under ketamine (120 mg/kg ip.; Calypsol, Gedeon Richter Plc., Budapest, Hungary) and xylazine (6 mg/kg ip.; Sedaxylan, Eurovet Animal Health B.V., Bladel, Netherlands) anaesthesia. 24 h after administration, respiratory function parameters were assessed, and lung samples were harvested for histopathological evaluation.\nSCA-744 (60 mg/kg) and its vehicle were injected intraperitoneally (i.p.), 24 h, 12 h, 20 min before and 12 h after intratracheal administration of LPS. […] 24 h and 20 min before LPS treatment. Respiratory function measurement was performed 24 h after LPS administration\nBuxco FinePoint Non-invasive Airway Mechanics (NAM) double chamber plethysmography (DSI Harvard Bioscience Inc.) was used to monitor ventilatory and bronchoconstriction parameters in awake, restrained animals without the use of anesthesia. The plethysmograph measures the nasal and thoracic flows independently. […] After 10 minutes of acclimatization period baseline pulmonary functions were assessed, such as the frequency, tidal volume, minute ventilation, expiratory/inspiratory time, peak expiratory/inspiratory flow, and specific airway resistance, a measure of bronchoconstriction."}, "[1]": {"tested_on": "SH-SY5Y (neuroblastoma cell line)", "assay": "RNAseq global gene expression in differentiated SH-SY5Y cells", "type": "cell-based, human", "description": "To determine the cellular response to SCA-744 (Cat. No. 55523-250 MG Sigma-Aldrich), the global changes in gene expression upon treatment of human in vitro cultured cells, SH-SY5Y (neuroblastoma cell line: SH-SY5Y-ATCC-CRL-2266) were analysed by RNAseq analysis. SH-SY5Y were cells differentiated with retinoic acid and Phorbol-12-Myristate-13-Acetate (Presgraves et al. Experimental Neurology 2004, 190(1), pp. 157-170). Cell cultures were treated for 24 hours with 500 μM of SCA-744 or vehicle (DPBS). Total RNA was isolated to prepare libraries using the Lexogen SENSE mRNA kit and sequenced using a HiSeq2500 (Illumina) running in 50 bp single-read modes using sequencing chemistry v4. Differentially expressed genes (DEGs) were identified by applying the statistical tests of DESeq (Anders & Huber, Genome biology 2010, 11(10), p. R106), and edgeR (Robinson et al. Bioinformatics 2009, 26(1), pp. 139-140.) packages. The comparison was made with Homo sapiens identifiers."}, "[2]": {"tested_on": "SH-SY5Y neuroblastoma cells", "assay": "MPP+ induced mitochondria fragmentation in SH-SY5Y cells (MitoTracker confocal imaging)", "type": "cell-based, human", "conditions": "MPP+ 0.5 mM 48 hours, SCA-744 500 μM", "description": "To test whether SCA-744 would be able to rescue cells from oxidative damage induced by mitochondrial dysfunction, SH-SY5Y neuroblastoma cells were treated with 1-methyl-4-phenylpyridinium (MPP+) (0.5 mM, 48 hours) to induce mitochondria fragmentation. […] To visualize mitochondria, cells were incubated with MitoTracker Red CMXRos, a mildly thiol-reactive chloromethyl moiety for mitochondria labelling (MitoTracker Red CMXRos #9082 Cell Signaling), fixed and mounted. Mitochondrial morphology was imaged with a laser scanning confocal microscope LSM710 Zeiss."}, "HELA cells": {"tested_on": "HELA cells", "assay": "Protection from H2O2 induced stress", "type": "cell-based", "description": "Using an incubation time of 24 h, it was sufficient to determine the toxicity and rescue effect of SCA-744 in HELA cells."}, "neuroblastoma cells": {"tested_on": "neuroblastoma cells", "assay": "Protection from MPP+ induced oxidative stress, CellTiter-Glo viability", "type": "cell-based", "description": "Several in-vivo and in-vitro studies find that MPP+ exerts oxidative stress on cells^22. MPP+×toxicity is based on its uptake into dopaminergic neurons. MPP+ accumulate into the mitochondria, inhibiting the complex-I leading to ATP depletion, increased reactive oxygen species (ROS) production, and apoptotic cell death^23. 12 h following MPP+ treatment and SCA-744 and CAL-X incubation, cell viability was assessed using a standard ATP method, CellTiter-Glo® Luminescent Cell Viability Assay."}, "[3]": {"conditions": "500 μM, 24 hours, differentiated SH-SY5Y"}},
  "note": "Entries after “also recorded” stand apart in the source; their conditions may differ.",
  "data": [
    {"compound": "O=S(=O)(O)c1cc2c(O)c(c1)Cc1cc(S(=O)(=O)O)cc(c1O)Cc1cc(S(=O)(=O)O)cc(c1O)Cc1cc(S(=O)(=O)O)cc(c1O)C2", "note": "[SCA-744, 4-sulfocalix[4]arene]", "values": [
      {"measurement": "NQO1 immunoblot signal increase", "setting": "NQO1; HeLa, 500 μM, prominent signal already at 50 μM, none in control", "result": "approximately 3.5 fold"},
      {"measurement": "NQO1 protein expression (immunoblot)", "setting": "NQO1; HeLa, 50, 100 and 500 μM", "result": "significantly increases the expression; also recorded: very significant up-regulation"},
      {"measurement": "respiratory function parameters (fBPM, FRC, Te, Rpef, Ti) versus control animals", "setting": "C57BL/6J mice", "result": "significantly improved; also recorded: did not induce statistically significant alterations"},
      {"measurement": "genes for LDLR, INSIG1 and DHCR24/Seladin-1", "setting": "[1]", "result": "found to be modulated"},
      {"measurement": "genes involved in inflammation, anti-oxidative, anti-ageing response and lipid metabolism (RNAseq)", "setting": "[1]; [3]", "result": "differentially regulated"},
      {"measurement": "mRNA expression of anti-oxidative genes CHAC1, NQO1, SLC7A11 (RNASeq)", "setting": "[1]; [3]", "result": "significant up-regulation"},
      {"measurement": "mRNA expression of key genes involved in pro-inflammatory response", "setting": "[1]; [3]", "result": "down regulates key genes involved in pro-inflammatory response"},
      {"measurement": "mitochondria integrity after MPP+", "setting": "[2]", "result": "protects against cell death and restores mitochondria integrity; also recorded: cells maintained the integrity of mitochondria"},
      {"measurement": "EC50", "setting": "HELA cells; Homo sapiens, HELA, 24 h incubation, H2O2 50 mM, read-out: EC50 rescue from H2O2 toxicity", "result": 200, "unit": "nM"},
      {"measurement": "protection from H2O2 induced damage", "setting": "HELA cells; mammalian cells, FIG. 20", "result": "protects against oxidative stress from H2O2 induced damage"},
      {"measurement": "protection from MPP+ induced apoptosis / damage", "setting": "neuroblastoma cells; 0.1-1000 μM, 12 h", "result": "protects against oxidative stress from MPP+ induced damage; also recorded: protected neuroblastoma cells from MPP+ induced apoptosis"},
      {"measurement": "concentration for MPP+ protection", "setting": "neuroblastoma cells; 12 h following MPP+ treatment, CellTiter-Glo", "result": 1, "unit": "µM"}
    ]}
  ]
}
